The numbers were not newly measured in patent publication US20180185509A1, “AMATOXIN-CONJUGATES WITH IMPROVED LINKAGES” (Heidelberg Pharma GmbH, priority 2011, published 2018), which cites them from elsewhere.

Usually Kd stands for the concentration at which binding is half-saturated.

In this series the target is RNA-polymerase II (Homo sapiens, UniProt P24928). The conditions noted are these: read-out: KD of the complex between amanitin and RNA-polymerase II.

amanitin: the Kd was 3 nM.
